These results are taken from patent publication US9029389B2 (Institut Pasteur Korea, priority 2011, dated 2015).

pIC50: −log10 of the molar value. Some results are limits rather than exact numbers.

One data set deals with T1, Human 5-lipoxygenase (Homo sapiens, UniProt P09917).
T1 construct: purchased Cayman 60402; host or cells: insect cells
T1 sequence (P09917 1-674): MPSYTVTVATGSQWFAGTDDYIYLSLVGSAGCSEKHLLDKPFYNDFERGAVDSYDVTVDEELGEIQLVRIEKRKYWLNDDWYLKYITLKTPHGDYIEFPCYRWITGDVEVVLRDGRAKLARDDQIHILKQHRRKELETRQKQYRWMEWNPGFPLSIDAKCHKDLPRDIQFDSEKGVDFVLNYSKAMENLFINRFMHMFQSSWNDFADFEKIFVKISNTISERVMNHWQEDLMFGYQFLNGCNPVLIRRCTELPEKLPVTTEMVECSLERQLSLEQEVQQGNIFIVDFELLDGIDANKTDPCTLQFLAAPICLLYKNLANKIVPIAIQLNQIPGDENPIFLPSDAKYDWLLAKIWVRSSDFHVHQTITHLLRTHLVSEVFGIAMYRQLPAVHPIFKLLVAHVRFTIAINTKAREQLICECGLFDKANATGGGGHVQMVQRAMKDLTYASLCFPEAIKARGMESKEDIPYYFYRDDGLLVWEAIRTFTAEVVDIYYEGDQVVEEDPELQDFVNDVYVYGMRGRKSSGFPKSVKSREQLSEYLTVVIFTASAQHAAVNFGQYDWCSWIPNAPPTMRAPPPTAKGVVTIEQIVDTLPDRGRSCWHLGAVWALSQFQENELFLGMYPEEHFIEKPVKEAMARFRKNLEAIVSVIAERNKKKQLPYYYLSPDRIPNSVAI
In words: Activity of compounds against 5-LO enzyme (LTB4 measurement and/or fluorescence method). It is filed as biochemical. The settings on record: for inhibition at 10 µM: 5-LO, single concentration of 10 uM in duplicate; for pIC50: 6 or 11 point dose response in duplicate. The method in brief: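 Insect-cell human 5-LO preincubated 15 min at RT with compound (pH 7.4, 2 mM CaCl2, 0.1 mM ATP, 1% DMSO), then 3 uM arachidonic acid for 5 min at 37 °C; LTB4 quantified by EIA and/or LC/MS/MS. Alternatively, fluorescence of 5-HpETE via H2DCFDA, 100 uM ATP, 3 uM arachidonic acid, 5 min, RT; single 10 uM screen then 6- or 11-point IC50.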

Compound `CCc1nc2ccc(Cl)cn2c1C(=O)NCc1ccc(N2CCC(O)(c3ccc(F)cc3)CC2)cc1` [compound 306, 6-Chloro-2-ethyl-N-(4-(4-(4-fluorophenyl)-4-hydroxypiperidin-1-yl)benzyl)imidazo[1,2-a]pyridine-3-carboxamide] registered a melting point of 173.5 °C. For the same compound, the inhibition at 10 µM on Human 5-lipoxygenase lay in the range of 40 to 69%.

Take `CCc1nc2ccc(Cl)cn2c1C(=O)NC1CCN(Cc2ccc(OC(F)(F)F)cc2)CC1` [compound 309, 6-Chloro-2-ethyl-N-(1-(4-(trifluoromethoxy)benzyl)piperidin-4-yl)imidazo[1,2-a]pyridine-3-carboxamide]: the melting point fell in the range of 157 to 158 °C. At Human 5-lipoxygenase, the inhibition at 10 µM lay within 40 to 69% and the negative logarithm of the IC50 (pIC50) was 4.70 to 6.00.

`CCc1nc2c[n+]([O-])ccn2c1C(=O)NCc1ccc(-c2ccc(Cl)cc2)cc1` [compound 310, 3-(((4′-Chloro-[1,1′-biphenyl]-4-yl)methyl)carbamoyl)-2-ethylimidazo[1,2-a]pyrazine 7-oxide] displayed a melting point of 238 °C. On Human 5-lipoxygenase, this compound showed an inhibition at 10 µM of 40 to 69% and a pIC50 of 4.70 to 6.00.

`CCc1nc2ccc(Cl)cn2c1C(=O)NCc1ccc(C2CCN(C(=O)Cc3ccc(F)cc3)CC2)cc1` [compound 327, 6-chloro-2-ethyl-N-(4-(1-(2-(4-fluorophenyl)acetyl)piperidin-4-yl)benzyl)imidazo[1,2-a]pyridine-3-carboxamide] showed a melting point of 216.2 to 220.7 °C. The compound also came in with an inhibition at 10 µM on Human 5-lipoxygenase of 40 to 69%.

`CCc1nc2ccc(Cl)cn2c1C(=O)NCc1cccc(N(C)Cc2ccc(OC(F)(F)F)cc2)c1` [compound 352, 6-chloro-2-ethyl-N-(3-(methyl(4-(trifluoromethoxy)benz)amino)benzyl)imidazo[1,2-a]pyridine-3-carboxamide]: the melting point is > 142.3 °C (dec.). Besides, at Human 5-lipoxygenase, the inhibition at 10 µM was < 40%.

As for `CCc1nc2ccc(Cl)cn2c1C(=O)NCc1cccc(OCc2ccc(OC(F)(F)F)cc2)c1` [compound 353, 6-chloro-2-ethyl-N-(3-((4-(trifluoromethoxy)benzyl)oxy)benzyl)imidazo[1,2-a]pyridine-3-carboxamide], the melting point is > 142.7 °C (dec.). Also, the inhibition at 10 µM against Human 5-lipoxygenase is < 40%.

The compound `CCc1nc2ccc(Cl)cn2c1C(=O)NCc1cccc(N2CCC(c3ccc(OC(F)(F)F)cc3)CC2)c1` [compound 354, 6-chloro-2-ethyl-N-(3-(4-(4-(trifluoromethoxy)phenyl)piperidin-1-yl)benzyl)imidazo[1,2-a]pyridine-3-carboxamide] registered a melting point of 135.5 to 136.4 °C. Also, the inhibition at 10 µM on Human 5-lipoxygenase was < 40%.

On to `CCc1nc2ccc(Cl)cn2c1C(=O)NCc1cccc(CC(=O)Nc2ccc(F)cc2)c1` [compound 355, 6-chloro-2-ethyl-N-(3-(2-((4-fluorophenyl)amino)-2-oxoethyl)benzyl)imidazo[1,2-a]pyridine-3-carboxamide], for which the melting point is > 198.8 °C (dec.). For the same compound, the inhibition at 10 µM against Human 5-lipoxygenase was < 40%.

Consider `CCc1nc2ccc(Cl)cn2c1C(=O)NCc1cccc(N2CCN(c3ccc(OC(F)(F)F)cc3)CC2)c1` [compound 356, 6-chloro-2-ethyl-N-(3-(4-(4-(trifluoromethoxy)phenyl)piperazin-1-yl)benzyl)imidazo[1,2-a]pyridine-3-carboxamide], for which the melting point was > 168 °C (dec.). In addition, the inhibition at 10 µM at Human 5-lipoxygenase lay in the range of 40 to 69%.

`CCc1nc2ccc(Cl)cn2c1C(=O)NCc1ccc(CC2CCOCC2)cc1` [compound 358, 6-chloro-2-ethyl-N-(4-((tetrahydro-2H-pyran-4-yl)methyl)benzyl)imidazo[1,2-a]pyridine-3-carboxamide] had a melting point of 132.2 to 133 °C. On Human 5-lipoxygenase, the inhibition at 10 µM was < 40%.

As to `CCc1nc2cc(Cl)ccn2c1C(=O)NCc1ccc(CC2CCOCC2)cc1` [compound 359, 7-chloro-2-ethyl-N-(4-((tetrahydro-2H-pyran-4-yl)methyl)benzyl)imidazo[1,2-a]pyridine-3-carboxamide], the melting point is > 125.9 °C (dec.). Further, the inhibition at 10 µM against Human 5-lipoxygenase was < 40%.

`CCc1nc2ccc(Cl)cn2c1C(=O)NCc1cccc(N2CCC(Oc3ccc(OC(F)(F)F)cc3)CC2)c1` [compound 360, 6-chloro-2-ethyl-N-(3-(4-(4-(trifluoromethoxy)phenoxy)piperidin-1-yl)benzyl)imidazo[1,2-a]pyridine-3-carboxamide] yielded a melting point of 126.3 to 127.2 °C. This compound gave an inhibition at 10 µM on Human 5-lipoxygenase of 40 to 69%.

Regarding `CCc1nc2ccc(Cl)cn2c1C(=O)NCc1cc2cc(Cl)ccc2s1` [compound 361, 6-chloro-N-((5-chlorobenzo[b]thiophen-2-yl)methyl)-2-ethylimidazo[1,2-a]pyridine-3-carboxamide], the melting point was > 220 °C. The inhibition at 10 µM against Human 5-lipoxygenase is < 40%.

As for `CCc1nc2ccccn2c1C(=O)NCc1ccc(C2CCOCC2)cc1` [compound 362, 2-ethyl-N-(4-(tetrahydro-2H-pyran-4-yl)benzyl)imidazo[1,2-a]pyridine-3-carboxamide], the melting point was > 133.7 °C (dec.). Besides, at Human 5-lipoxygenase, the inhibition at 10 µM is < 40%.

Turning to `CCc1nc2ccc(Cl)cn2c1C(=O)NCc1ccc(C2CCOCC2)cc1` [compound 363, 6-chloro-2-ethyl-N-(4-(tetrahydro-2H-pyran-4-yl)benzyl)imidazo[1,2-a]pyridine-3-carboxamide], the melting point was > 195.5 °C (dec.). On Human 5-lipoxygenase, the inhibition at 10 µM was < 40%.

Take `CCc1nc2cc(Cl)ccn2c1C(=O)NCc1ccc(C2CCOCC2)cc1` [compound 364, 7-chloro-2-ethyl-N-(4-(tetrahydro-2H-pyran-4-yl)benzyl)imidazo[1,2-a]pyridine-3-carboxamide]: the melting point is > 156.6 °C (dec.). For the same compound, the inhibition at 10 µM against Human 5-lipoxygenase was < 40%.

On to `CCc1nc2ccc(Cl)cn2c1C(=O)NCc1cc2cc(Cl)ccc2o1` [compound 366, 6-chloro-N-((5-chlorobenzofuran-2-yl)methyl)-2-ethylimidazo[1,2-a]pyridine-3-carboxamide], for which the melting point was in the range of 223.5 to 225.6 °C. Also, the inhibition at 10 µM against Human 5-lipoxygenase was < 40%.

Turning to `CCc1nc2ccc(Cl)cn2c1C(=O)NCc1nc2ccc(Cl)cc2n1C` [compound 367, 6-chloro-N-((6-chloro-1-methyl-1H-benzo[d]imidazol-2-yl)methyl)-2-ethylimidazo[1,2-a]pyridine-3-carboxamide], the melting point is > 220 °C. Also, at Human 5-lipoxygenase, the inhibition at 10 µM was < 40%.

On to `CCc1nc2ccc(Cl)cn2c1C(=O)NCc1nc2cc(Cl)ccc2n1C` [compound 368, 6-chloro-N-((5-chloro-1-methyl-1H-benzo[d]imidazol-2-yl)methyl)-2-ethylimidazo[1,2-a]pyridine-3-carboxamide], for which the melting point is > 220 °C. Moreover, on Human 5-lipoxygenase, the inhibition at 10 µM was < 40%.

In turn, `CCc1nc2ccc(Cl)cn2c1C(=O)NCc1nc2ccc(Cl)cc2o1` [compound 369, 6-chloro-N-((6-chlorobenzo[d]oxazol-2-yl)methyl)-2-ethylimidazo[1,2-a]pyridine-3-carboxamide] showed a melting point of 201.1 to 201.8 °C. Also, the inhibition at 10 µM against Human 5-lipoxygenase is < 40%.

As to `CCc1nc2cc(Cl)ccn2c1C(=O)NCc1nc2cc(-c3ccc(OC(F)(F)F)cc3)ccc2o1` [compound 370, 7-chloro-2-ethyl-N-((5-(4-(trifluoromethoxy)phenyl)benzo[d]oxazol-2-yl)methyl)imidazo[1,2-a]pyridine-3-carboxamide], the melting point was > 220 °C. The inhibition at 10 µM against Human 5-lipoxygenase is < 40%.

As for `CCc1nc2ccc(Cl)cn2c1C(=O)NCc1nc2ccc(Cl)cc2s1` [compound 371, 6-chloro-N-((6-chlorobenzo[d]thiazol-2-yl)methyl)-2-ethylimidazo[1,2-a]pyridine-3-carboxamide], the melting point was > 220 °C. Also, the inhibition at 10 µM on Human 5-lipoxygenase is < 40%.

`CCc1nc2ccc(F)cn2c1C(=O)NCc1ccc(N2CCC(c3ccc(OC(F)(F)F)cc3)CC2)cc1` [compound 372, 2-ethyl-6-fluoro-N-(4-(4-(4-(trifluoromethoxy)phenyl)piperidin-1-yl)benzyl)imidazo[1,2-a]pyridine-3-carboxamide]: the melting point is > 167.9 °C (dec.). For the same compound, on Human 5-lipoxygenase, the inhibition at 10 µM was < 40%.

For `CCc1nc2c(F)cccn2c1C(=O)NCc1ccc(N2CCC(c3ccc(OC(F)(F)F)cc3)CC2)cc1` [compound 373, 2-ethyl-8-fluoro-N-(4-(4-(4-(trifluoromethoxy)phenyl)piperidin-1-yl)benzyl)imidazo[1,2-a]pyridine-3-carboxamide], the melting point is > 177.7 °C (dec.). On Human 5-lipoxygenase, the inhibition at 10 µM fell in the range of 40 to 69%.

By melting point is commonly meant the temperature of the solid-liquid transition. One may read the inhibition as the share of the control response that was lost under treatment. The low end stands for a response near the control, the high end for a response far below the control. The pIC50 is the negative decadic logarithm of the IC50, by convention in mol/L.
